The first assay addresses plasmepsin II (Plasmodium falciparum, UniProt P46925). Briefly: biochemical. To be noted: Additional Examples table; FRET, pH 5, 37° C., 40 min, substrate 1 μM; read-out: IC50 (nM) on plasmepsin II.
plasmepsin II, sequence (P46925 125-453): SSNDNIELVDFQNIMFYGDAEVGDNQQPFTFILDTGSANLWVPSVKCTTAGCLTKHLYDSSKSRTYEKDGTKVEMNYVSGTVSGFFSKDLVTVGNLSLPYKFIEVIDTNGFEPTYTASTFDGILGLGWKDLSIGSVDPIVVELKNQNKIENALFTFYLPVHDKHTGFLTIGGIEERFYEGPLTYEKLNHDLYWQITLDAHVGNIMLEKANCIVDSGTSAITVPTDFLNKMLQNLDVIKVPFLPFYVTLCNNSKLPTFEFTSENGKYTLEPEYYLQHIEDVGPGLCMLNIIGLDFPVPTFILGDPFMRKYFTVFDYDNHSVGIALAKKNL
Turning to `CCCCCc1ccc(C(=O)N(Cc2ccc(-c3ccncc3)cc2)C2CCN(Cc3ccccc3)CC2)cc1` [Example 66, N-(1-Benzylpiperidin-4-yl)-4-pentyl-N-(4-pyridin-4-ylbenzyl)benzamide], the concentration for half-maximal inhibition (IC50) (usually the concentration at which inhibition is half-maximal) worked out at 104 nM.

Take `CCCCCc1ccc(CN(Cc2ccc(OCc3ccc(F)cc3)cc2)C2CCN(Cc3ccccc3)CC2)cc1` [Example 102, (1-Benzylpiperidin-4-yl)-[4-(4-fluorobenzyloxy)benzyl]-(4-pentylbenzyl)amine]: the IC50 came out at 414 nM. On to `CCCCCCc1ccc(C(=O)N(Cc2ccc(-c3ccccc3)cc2)C2CCN(Cc3ccccc3)CC2)cc1` [Example 97, N-(1-Benzylpiperidin-4-yl)-N-biphenyl-4-ylmethyl-4-hexyl-benzamide], for which the IC50 is 322 nM. For `CCCCCc1ccc(C(=O)N(Cc2ccc(-c3ccc4c(c3)OCO4)cc2)C2CCN(Cc3ccoc3)CC2)cc1` [Example 49, N-(4-Benzo[1,3]dioxol-5-yl-benzyl)-N-(1-furan-3-ylmethylpiperidin-4-yl)-4-pentylbenzamide], the half-maximal inhibitory concentration (IC50) was determined as 52 nM. The same measure, in the same setting: then `CCCCCc1ccc(C(=O)N(Cc2ccc(-c3ccc(OCCO)cc3)cc2)C2CCN(Cc3ccoc3)CC2)cc1` [Example 51, N-(1-Furan-3-ylmethypiperidin-4-yl)-N-[4′-(2-hydroxyethoxy)biphenyl-4-ylmethyl]-4-pentylbenzamide], with 57 nM; and `CCCCCc1ccc(C(=O)N(Cc2ccc(-c3ccccc3F)cc2)C2CCN(CC3=CCCCC3)CC2)cc1` [Example 69, N-(1-Cyclohex-1-enylmethylpiperidin-4-yl)-N-(2′-fluorobiphenyl-4-ylmethyl)-4-pentylbenzamide], with 123 nM; and `CCCCCc1ccc(CN(Cc2ccc(-c3ccc(OC)c(OC)c3)cc2)C2CCN(Cc3ccccc3)CC2)cc1` [Example 88, (1-Benzylpiperidin-4-yl)-(3′,4′-dimethoxybiphenyl-4-ylmethyl)-(4-pentyl-benzyl)amine], with 255 nM.

In the case of `CCCCCc1ccc(C(=O)N(Cc2ccc(-c3ccccc3F)cc2)C2CCN(Cc3ccoc3)CC2)cc1` [Example 60, N-(2′-Fluorobiphenyl-4-ylmethyl)-N-(1-furan-3-ylmethylpiperidin-4-yl)-4-pentylbenzamide], the IC50 is 87 nM. Consider `C=CCOc1ccc(CN(C(=O)c2ccc(CCCCC)cc2)C2CCN(Cc3ccccc3)CC2)cc1` [Example 90, N-(4-Allyloxybenzyl)-N-(1-benzylpiperidin-4-yl)-4-pentylbenzamide], for which the IC50 came to 270 nM.

`CCCCCc1ccc(C(=O)N(Cc2ccc(-c3ccccn3)cc2)C2CCN(Cc3ccoc3)CC2)cc1` [Example 78, N-(1-Furan-3-ylmethylpiperidin-4-yl)-4-pentyl-N-(4-pyridin-2-yl-benzyl)benzamide]: the half-inhibitory concentration (IC50) came out at 168 nM. Regarding `CCCCCc1ccc(C(=O)N(Cc2ccc(-c3cccnc3)cc2)C2CCN(Cc3ccncc3)CC2)cc1` [Example 64, 4-Pentyl-N-(4-pyridin-3-yl-benzyl)-N-(1-pyridin-4-ylmethylpiperidin-4-yl)benzamide], the IC50 stood at 102 nM. Consider `CCCCCc1ccc(C(=O)N(Cc2ccc(-c3ccccc3)cc2)C2CCN(Cc3ccccc3O)CC2)cc1` [Example 99, N-Biphenyl-4-ylmethyl-N-[1-(2-hydroxybenzyl)piperidin-4-yl]-4-pentylbenzamide], for which the IC50 worked out at 361 nM.

For the compound `CCCCCc1ccc(CN(Cc2ccc(OCc3ccccc3)cc2)C2CCN(Cc3ccccc3)CC2)cc1` [Example 103, (4-Benzyloxybenzyl)-(1-benzyl-piperidin-4-yl)-(4-pentylbenzyl)amine], the half-maximal inhibitory concentration (IC50) stood at 431 nM. As to `CCCCCC12CCC(C(=O)N(Cc3ccc(-c4ccccc4)cc3)C3CCN(Cc4ccccc4)CC3)(CC1)CC2` [Example 118, 4-Pentylbicyclo[2.2.2]octane-1-carboxylic acid(1-benzylpiperidin-4-yl)-biphenyl-4-ylmethylamide], the IC50 was found to be 942 nM. Turning to `CCCCCc1ccc(CN(Cc2ccc(-c3ccccc3F)cc2)C2CCN(Cc3ccccc3)CC2)cc1` [Example 109, (1-Benzylpiperidin-4-yl)-(2′-fluoro-biphenyl-4-ylmethyl)-(4-pentyl-benzyl)amine], the IC50 was 656 nM.

For `CCCCCc1ccc(C(=O)N(Cc2ccc(OCc3ccccc3)cc2)C2CCCN(Cc3ccccc3)C2)cc1` (racemic) [Example 105, (rac.)-N-(4-Benzyloxybenzyl)-N-(1-benzylpiperidin-3-yl)-4-pentyl-benzamide], the concentration for half-maximal inhibition (IC50) came out at 458 nM. The same measure, in the same setting: with `CCCCCc1ccc(C(=O)N(Cc2ccc(-c3ccccc3)cc2)C2CCN(Cc3ccc(OC(F)(F)F)cc3)CC2)cc1` [Example 110, N-Biphenyl-4-ylmethyl-4-pentyl-N-[1-(4-trifluoromethoxybenzyl)piperidin-4-yl]benzamide] the figure was 692 nM. Same read-out and setting: then `CCCCCc1ccc(C(=O)N(Cc2ccc(OC(F)(F)F)cc2)C2CCN(Cc3ccccc3)CC2)cc1` [Example 80, N-(1-Benzylpiperidin-4-yl)-4-pentyl-N-(4-trifluoromethoxybenzyl)benzamide], with 187 nM; and `CCCCCc1ccc(C(=O)N(Cc2ccc(-c3ccccn3)cc2)C2CCN(Cc3ccncc3)CC2)cc1` [Example 79, 4-Pentyl-N-(4-pyridin-2-yl-benzyl)-N-(1-pyridin-4-ylmethylpiperidin-4-yl)benzamide], with 176 nM; and `CCCCCc1ccc(C(=O)N(Cc2ccc3c(c2)OCO3)C2CCN(Cc3ccccc3)CC2)cc1` [Example 93, N-Benzo[1,3]dioxol-5-ylmethyl-N-(1-benzylpiperidin-4-yl)-4-pentyl-benzamide], with 284 nM. Still for that read-out and setting: then `CCCCCc1ccc(C(=O)N(Cc2ccc(-c3ccccc3)cc2)C2CCN(Cc3ccoc3)CC2)cc1` [Example 71, N-Biphenyl-4-ylmethyl-N-(1-furan-3-ylmethyl-piperidin-4-yl)-4-pentylbenzamide], with 127 nM; and `CCCCCC(=Cc1ccccc1)CN(C(=O)c1ccc(CCCCC)cc1)C1CCN(Cc2ccccc2)CC1` [Example 117, N-(1-Benzylpiperidin-4-yl)-4-pentyl-N-(2-pentyl-3-phenylallyl)benzamide], with 933 nM; and `CCCCCc1ccc(C(=O)N(Cc2ccc(-c3ccccc3)cc2)C2CCN(Cc3cccc(C(F)(F)F)c3)CC2)cc1` [Example 96, N-Biphenyl-4-ylmethyl-4-pentyl-N-[1-(3-trifluoromethylbenzyl)piperidin-4-yl]benzamide], with 319 nM. As to `CCCCCc1ccc(C(=O)N(Cc2ccc(-c3cccc(OC(F)(F)F)c3)cc2)C2CCN(Cc3ccccc3)CC2)cc1` [Example 113, N-(1-Benzylpiperidin-4-yl)-4-pentyl-N-(3′-trifluoromethoxy-biphenyl-4-ylmethyl)benzamide], the IC50 came out at 816 nM. Same read-out and setting: with `CCCCCc1ccc(CN(Cc2ccc(-c3cncnc3)cc2)C2CCN(Cc3ccccc3)CC2)cc1` [Example 107, (1-Benzylpiperidin-4-yl)-(4-pentyl-benzyl)-(4-pyrimidin-5-ylbenzyl)amine] the figure was 618 nM. Still for that read-out and setting: then `CCCCCc1ccc(C(=O)N(Cc2ccc(-c3ccccn3)cc2)C2CCN(Cc3ccccc3)CC2)cc1` [Example 84, N-(1-Benzylpiperidin-4-yl)-4-pentyl-N-(4-pyridin-2-yl-benzyl)benzamide], with 209 nM. On to `CCCCCc1ccc(C(=O)N(Cc2ccc(-c3cccnc3)cc2)C2CCN(Cc3cc4ccccc4o3)CC2)cc1` [Example 85, N-(1-Benzofuran-2-ylmethyl-piperidin-4-yl)-4-pentyl-N-(4-pyridin-3-yl-benzyl)benzamide], for which the IC50 worked out at 211 nM. With `CCCCCc1ccc(C(=O)N(Cc2ccc(-c3cccc(C)c3)cc2)C2CCN(Cc3ccccc3)CC2)cc1` [Example 74, N-(1-Benzylpiperidin-4-yl)-N-(3′-methylbiphenyl-4-ylmethyl)-4-pentylbenzamide], the 50% inhibitory concentration (IC50) stood at 140 nM. On the same count and under the same terms, with `CCCCCc1ccc(C(=O)N(Cc2ccc(-c3ccccc3)cc2)C2CCN(Cc3ccc(O)cc3)CC2)cc1` [Example 81, N-Biphenyl-4-ylmethyl-N-[1-(4-hydroxybenzyl)piperidin-4-yl]-4-pentylbenzamide] the figure was 192 nM. Same read-out and setting: with `CCCCCc1ccc(C(=O)N(Cc2ccc(-c3ccc4c(c3)OCO4)cc2)C2CCN(CC3=CCCCC3)CC2)cc1` [Example 57, N-(4-Benzo[1,3]dioxol-5-yl-benzyl)-N-(1-cyclohex-1-enylmethyl-piperidin-4-yl)-4-pentyl-benzamide] the figure was 75 nM. The same measure, in the same setting: with `CCCCCc1ccc(C(=O)N(Cc2ccc(-c3cccnc3)cc2)C2CCN(CC3CC3)CC2)cc1` [Example 73, N-(1-Cyclopropylmethylpiperidin-4-yl)-4-pentyl-N-(4-pyridin-3-yl-benzyl)benzamide] the figure was 128 nM; with `CCCCCc1ccc(C(=O)N(Cc2ccc(-c3ccccc3)cc2)C2CCN(CC3=CCCCC3)CC2)cc1` [Example 82, N-Biphenyl-4-ylmethyl-N-(1-cyclohex-1-enylmethylpiperidin-4-yl)-4-pentylbenzamide], 196 nM. On to `CCCCCc1ccc(C(=O)N(Cc2ccc(-c3ccccc3)cc2)C2CCN(Cc3ccc(OC)cc3)CC2)cc1` [Example 56, N-Biphenyl-4-ylmethyl-N-[1-(4-methoxybenzyl)piperidin-4-yl]-4-pentylbenzamide], for which the IC50 was 71 nM.

The same assay, now with this note: […]; FRET, pH 5, 37° C., 40 min, substrate 1 μM; read-out: IC50 (nM) on plasmepsin II.
On to `CCCCCCCCCCCC(=O)N(Cc1ccc(OCc2ccccc2)cc1)C1CCN(Cc2ccccc2)CC1` [Example 6], for which the concentration for half-maximal inhibition (IC50) worked out at 1800 nM. Regarding `CCCCCc1ccc(CN(Cc2ccc(-c3ccccc3)cc2)C2CCCN(Cc3ccccc3)CC2)cc1` (racemic) [Example 34], the half-inhibitory concentration (IC50) is 1970 nM.

In the case of `CCCCCc1ccc(C(=O)N(Cc2ccc(-c3ccccc3)cc2)[C@H]2CCN(Cc3ccccc3)C2)cc1` [Example 36], the IC50 was 164 nM. Still for that read-out and setting: with `CCCCCCCCCCCC(=O)N(Cc1ccc(Oc2ccccc2)cc1)C1CCN(Cc2ccccc2)CC1` [Example 9] the figure was 1700 nM; with `CCCCCc1ccc(CN(Cc2ccc(-c3ccc(OCCO)cc3)cc2)C2CCN(Cc3ccccc3)CC2)cc1` [Example 33], 96 nM; with `CCCCOc1ccc(C(=O)N(Cc2ccc(OCc3ccccc3)cc2)C2CCN(Cc3ccccc3)CC2)cc1` [Example 3], 1700 nM.

These data come from patent US20040102431A1, “Substituted amino-aza-cycloalkanes useful against malaria” (priority 2000, published 2004).
